Assays:
[1] = pH of saturated solution or 1% suspension in water; format: physicochemical; settings: In pH = 6.8 buffer
[2] = Intrinsic dissolution rate, rotation disk method; format: physicochemical; settings: for Intrinsic Dissolution Rate: 37° C., 200 r.p.m.
Outline: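 Pellets of drug substance dissolved by rotating disk at 200 r.p.m. into a 500 mL vessel at 37 °C. Dissolved drug monitored continuously by recirculating the medium through a UV cell.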

[3] = Solubility, 24-hour equilibration at room temperature; format: physicochemical; settings: for Solubility: approx. at 25° C.; for approximate solubility in water as %: estimated from mg/mL assuming solution density 1 g/mL
Outline: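 20-50 mg sample in 1 ml solvent, equilibrated 24 h at room temperature. Dissolved amount measured gravimetrically or by UV-VIS, and pH of the clear solution recorded; salts may dissociate to free form, affecting solubility and pH.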

[4] = Equilibration in solvents and buffers: form conversion
[5] = Stability of mixtures with excipients; format: physicochemical; settings: for stability with all excipient mixtures tested, in words: after 2 weeks at 50° C./75% r.h.
Procedure: (§1) All samples were prepared/diluted to a concentration of 0.2 mg/mL in methanol prior to analysis by HPLC. A freshly prepared sample of each salt was used as the reference standard for external standard calibration analysis.

[6] = pH of saturated solution or 1% suspension in water; format: physicochemical; settings: room temperature
Procedure: pH Value: The pH at room temperature of a saturated solution or 1% suspension of the drug substance in water was recorded.

Solid-state stability = format: physicochemical; settings: for Bulk stability (XRPD): 1 week
Procedure: as §1

[7] = Solution stability (HPLC); format: physicochemical; settings: for stability characteristics, in words: both in solution and in the solid state; for Unstressed (% Area): unstressed baseline of the stability study
Procedure: as §1

[8] = Water, free base pellet disintegrated, not true intrinsic rate
[9] = Mixture 1: 50% PVP + 50% Crospovidone, 50° C./75% r.h., 2 weeks
[10] = Mixture 2: 50% Starch 1500 + 5% MCC 102, 50° C./75% r.h., 2 weeks
[11] = Mixture 3: 5% PVP + 5% Crospovidone + 10% Starch 1500 + 80% MCC 102, 50° C./75% r.h., 2 weeks
[12] = Mixture 4: 99% Lactose + 1% BHT/BHA, 50° C./75% r.h., 2 weeks
[13] = Mixture 5: 99% Mannitol + 1% BHT/BHA, 50° C./75% r.h., 2 weeks
[14] = Mixture 6: 50% Mannitol + 47% HPCLH21 + 1% BHT/BHA + 2% Magnesium Stearate, 50° C./75% r.h., 2 weeks
[15] = Mixture 7: 50% Cetyl Alcohol + 49% HPCLH21 + 1% Magnesium Stearate, 50° C./75% r.h., 2 weeks
[16] = Bulk stability, 2 weeks, 50° C.
[17] = Bulk stability, 2 weeks, 50° C./20% water
[18] = Bulk stability, 2 weeks, 50° C./75% r.h.
[19] = Light study, 1200 kLux (300-800 nm)
[20] = 2 mg/mL in 100 mM lactate buffer, pH 3.5
[21] = 2 mg/mL in methanol, 1 week at 50° C.
[22] = 2 mg/mL in water, 1 week at 50° C.
[23] = 2 mg/mL, 100 mM lactate buffer pH 3.5, 1 week at 50° C.
[24] = 2 mg/mL, 100 mM lactate buffer pH 3.5, 1 week at 50° C., external standard
[25] = 2% in 0.5% HPMC 4000, 1 day at RT
[26] = 2% in 0.5% Klucel HF, 1 day at RT
[27] = 2% in 0.8% Tween 80, 1 day at RT
[28] = 5% solution, 1 day at RT (diluted 1:100 in pH 6.8 buffer)
[29] = Mixture 8: 100% PEG 3350, 50° C./75% r.h., 2 weeks

CS(=O)(=O)O.Cc1[nH]c2ccccc2c1CCNCc1ccc(/C=C/C(=O)NO)cc1 [Mesylate, 1:1 mesylate salt of N-hydroxy-3-[4-[[[2-(2-methyl-1H-indol-3-yl)ethyl]amino]methyl]phenyl]-2E-2-propenamide]
pH of saturated solution [1]: 5.38 | intrinsic dissolution (rate), in words [2]: high | Intrinsic Dissolution Rate ([2]; HCl 0.1N): 6.51 mg min^−1 cm^−2 | Intrinsic Dissolution Rate [2, 8]: 10.17 mg min^−1 cm^−2 | aqueous solubility [3]: 12900 µg/mL | solubility in methanol and ethanol, in words [3]: high | solubility in other common / remaining organic solvents, in words [3]: appreciable | Solubility ([3]; 0.1N HCl): 600 µg/mL | Solubility ([3]; 2-Propanol): 2200 µg/mL | Solubility ([3]; Acetone): 3000 µg/mL | Solubility ([3]; Ethanol): 14600 µg/mL | Solubility ([3]; Ethyl acetate): 6400 µg/mL | Solubility ([3]; Methanol): >115000 µg/mL | Solubility ([3]; Propylene glycol): 46500 µg/mL | Solubility ([3]; Water): 12900 µg/mL | behaviour of clear aqueous solutions on storage ([3]; concentration below the reported solubility, precipitate found to be the free base): solid precipitation occurred | approximate solubility in water as % [3]: 1.3% | Solubility ([3]; pH = 6.8 buffer): 4100 µg/mL | conversion upon equilibration ([4]; water / aqueous solutions): polymorphic transformation | % DP (total degradation products) [5, 9]: 0.8 % area | % DS (drug substance) [5, 9]: 99.2 % area | % DP (total degradation products) [5, 10]: 0.7 % area | % DS (drug substance) [5, 10]: 99.3 % area | % DP (total degradation products) [5, 11]: 0.7 % area | % DS (drug substance) [5, 11]: 99.3 % area | % DP (total degradation products) [5, 12]: 0.8 % area | % DS (drug substance) [5, 12]: 99.2 % area | % DP (total degradation products) [5, 13]: 0.8 % area | % DS (drug substance) [5, 13]: 99.2 % area | % DP (total degradation products) [5, 14]: 0.7 % area | % DS (drug substance) [5, 14]: 99.3 % area | % DP (total degradation products) [5, 15]: 0.6 % area | % DS (drug substance) [5, 15]: 99.4 % area | % DP (total degradation products) ([5]; Standard, freshly prepared): 0.5 % area | % DS (drug substance) ([5]; Standard, freshly prepared): 99.5 % area | stability with all excipient mixtures tested, in words [5]: very good stability | pH of saturated solution [6]: 4.34 | Bulk stability (XRPD) (Solid-state stability; 80° C.): No change | Bulk stability (XRPD) (Solid-state stability; 80° C./75% r.h.): No change | % DP (total degradation products) (Solid-state stability; [16]): 0.80 % area | assay (Solid-state stability; [16]): [99.35] | % DP (total degradation products) (Solid-state stability; [17]): 1.48 % area | assay (Solid-state stability; [17]): [97.36] | % DP (total degradation products) (Solid-state stability; [18]): 1.20 % area | assay (Solid-state stability; [18]): [100.0] | % DP (total degradation products) (Solid-state stability; [19]): 1.16 % area | CL (appearance) (Solid-state stability; [19]): B (B = slight discoloration) | assay (Solid-state stability; [19]): [98.28] | pH of initial mixture [7, 20]: 3.48 | % DP (total degradation products) [7, 21]: 0.62 % area | assay [7, 21]: [101.2] | pH of initial mixture ([7]; 2 mg/mL in water): 6.55 | % DP (total degradation products) [7, 22]: 1.16 % area | assay [7, 22]: [99.30] | % DP (total degradation products) [7, 23]: 1.60 % area | assay [7, 24]: [99.25] | % DP (total degradation products) ([7]; 2% in 0.5% CMC, 1 day at RT): 0.74 % area | CL (appearance) ([7]; 2% in 0.5% CMC, 1 day at RT): A↓↓ | assay ([7]; 2% in 0.5% CMC, 1 day at RT): [79.72] | % DP (total degradation products) [7, 25]: 0.66 % area | assay [7, 25]: [97.30] | % DP (total degradation products) [7, 26]: 0.66 % area | assay [7, 26]: [97.63] | % DP (total degradation products) [7, 27]: 0.63 % area | assay [7, 27]: [98.05] | % DP (total degradation products) [7, 28]: 0.78 % area | assay [7, 28]: [99.30] | stability characteristics, in words [7]: very good stability | Unstressed (% Area) [7]: 99.30% Area

Cc1[nH]c2ccccc2c1CCNCc1ccc(/C=C/C(=O)NO)cc1.Cl [HCl, hydrochloride salt of N-hydroxy-3-[4-[[[2-(2-methyl-1H-indol-3-yl)ethyl]amino]methyl]phenyl]-2E-2-propenamide]
pH of saturated solution [1]: 5.67 | intrinsic dissolution (rate), in words [2]: good | Intrinsic Dissolution Rate ([2]; HCl 0.1N): 0.13 mg min^−1 cm^−2 | Intrinsic Dissolution Rate [2, 8]: 0.68 mg min^−1 cm^−2 | aqueous solubility [3]: 2400 µg/mL | solubility in methanol, in words [3]: high | solubility in other common / remaining organic solvents, in words [3]: considerable | Solubility ([3]; 0.1N HCl): 200 µg/mL | Solubility ([3]; 2-Propanol): 800 µg/mL | Solubility ([3]; Acetone): 4500 µg/mL | Solubility ([3]; Ethanol): 2100 µg/mL | Solubility ([3]; Ethyl acetate): 6500 µg/mL | Solubility ([3]; Methanol): 16600 µg/mL | Solubility ([3]; Propylene glycol): 13200 µg/mL | Solubility ([3]; Water): 2400 µg/mL | approximate solubility in water as % [3]: approximately 0.3% | Solubility ([3]; pH = 6.8 buffer): 700 µg/mL | polymorphs upon equilibration ([4]; ambient temperature): No additional polymorphs are detected | conversion upon equilibration ([4]; phosphate buffer (pH=6.8)): converts to the free base | % DP (total degradation products) [5, 9]: 0.6 % area | % DS (drug substance) [5, 9]: 99.4 % area | % DP (total degradation products) [5, 10]: 0.5 % area | % DS (drug substance) [5, 10]: 99.5 % area | % DP (total degradation products) [5, 11]: 0.6 % area | % DS (drug substance) [5, 11]: 99.4 % area | % DP (total degradation products) [5, 12]: 0.5 % area | % DS (drug substance) [5, 12]: 99.5 % area | % DP (total degradation products) [5, 13]: 0.5 % area | % DS (drug substance) [5, 13]: 99.5 % area | % DP (total degradation products) [5, 14]: 0.5 % area | % DS (drug substance) [5, 14]: 99.5 % area | % DP (total degradation products) [5, 15]: 0.5 % area | % DS (drug substance) [5, 15]: 99.5 % area | % DP (total degradation products) [5, 29]: 0.5 % area | % DS (drug substance) [5, 29]: 99.5 % area | % DP (total degradation products) ([5]; Standard, freshly prepared): 0.3 % area | % DS (drug substance) ([5]; Standard, freshly prepared): 99.7 % area | stability with all excipient mixtures tested, in words [5]: very good stability | pH of saturated solution [6]: 5.65 | Bulk stability (XRPD) (Solid-state stability; 80° C.): no change | Bulk stability (XRPD) (Solid-state stability; 80° C./75% r.h.): no change | % DP (total degradation products) (Solid-state stability; [16]): 0.44 % area | assay (Solid-state stability; [16]): [99.38] | % DP (total degradation products) (Solid-state stability; [17]): 0.56 % area | assay (Solid-state stability; [17]): [100.6] | % DP (total degradation products) (Solid-state stability; [18]): 0.56 % area | assay (Solid-state stability; [18]): [99.04] | % DP (total degradation products) (Solid-state stability; [19]): 2.58 % area | CL (appearance) (Solid-state stability; [19]): C (C = medium discoloration) | assay (Solid-state stability; [19]): [98.15] | pH of initial mixture [7, 20]: 3.52 | % DP (total degradation products) [7, 21]: 0.38 % area | assay [7, 21]: [99.25] | pH of initial mixture ([7]; 2 mg/mL in water): 5.93 | % DP (total degradation products) [7, 22]: 0.89 % area | CL (appearance) [7, 22]: A↓* | assay [7, 22]: [97.53] | % DP (total degradation products) [7, 23]: 1.30 % area | CL (appearance) [7, 23]: A↓* | assay [7, 24]: [96.61] | % DP (total degradation products) ([7]; 2% in 0.5% CMC, 1 day at RT): 0.46 % area | CL (appearance) ([7]; 2% in 0.5% CMC, 1 day at RT): A↓↓ | assay ([7]; 2% in 0.5% CMC, 1 day at RT): [85.28] | % DP (total degradation products) [7, 25]: 0.43 % area | assay [7, 25]: [100.0] | % DP (total degradation products) [7, 26]: 0.43 % area | assay [7, 26]: [100.6] | % DP (total degradation products) [7, 27]: 0.43 % area | assay [7, 27]: [97.83] | % DP (total degradation products) [7, 28]: 1.40 % area | CL (appearance) [7, 28]: A↓ | assay [7, 28]: [98.91 | stability characteristics, in words [7]: very good stability | Unstressed (% Area) [7]: 99.63% Area
